From patent US12097192B2 (Corcept Therapeutics Incorporated, priority 2019, dated 2024)

Experiments:
Format in all cases: in vivo, human
[1] = tested on: Cushing's syndrome patients; test: Cushing's syndrome patient study: glucose control / hyperglycemia response; conditions: for Fructosamine, IGT mean change from Baseline to Last Observed / HOMA-IR, IGT mean change from Baseline to Last Observed / AUCglucose mean change from Baseline to Last Observed / AUCinsulin mean change from Baseline to Last Observed: All Subjects
Source text: (§1) All patients gave informed consent before participating in any study-related procedures. […] The study protocol called for patient visits to the study site at screening, on Day 1 (baseline), Weeks 2, 4, 6, 8, 10, and 12, and after a 4-week follow-up period for Group 1. For Group 2, the protocol called for patient visits to the study site at screening, on Day 1 (baseline), Weeks 2, 4, 6, 8, 10, 12, 14, and 16, and after a 4-week follow-up period. Patient dosing will be done at home, except on days of study visits. Response criteria for hyperglycemia were changes from baseline in glucose tolerance as measured by: ≥0.5% decrease in HbA1c, normalization or ≥50 mg/dL decrease in 2-hr OGTT glucose, or decrease in total daily insulin (≥25%) or sulfonylurea dose (≥50%). Response criteria for hypertension (HTN) was a ≥5 mm Hg decrease in mean systolic and/or diastolic blood pressure (SBP/DBP). […] It ignores noncompliance, protocol deviations, withdrawal, and anything that happens after randomization. In contrast, per-protocol (PP) analysis refers to inclusion in the analysis of only those patients who strictly adhered to the protocol. The PP analysis provides an estimate of the true efficacy of an intervention, i.e., among those who completed the treatment as planned.

[2] = tested on: Cushing's syndrome patients; test: Cushing's syndrome patient study: ECG; conditions: All Subjects
Source text: as §1, with “[…] The safety protocol also included assessments by physical examination findings, vital signs, ECG results, pregnancy tests, clinical laboratory test results (hematology and chemistry panels), adverse events (AEs), and concomitant medications.” for “Response criteria for hyperglycemia were changes from baseline in glucose tolerance as measured by: ≥0.5% decrease in HbA1c, normalization or ≥50 mg/dL decrease in 2-hr OGTT glucose, or decrease in total daily insulin (≥25%) or sulfonylurea dose (≥50%). Response criteria for hypertension (HTN) was a ≥5 mm Hg decrease in mean systolic and/or diastolic blood pressure (SBP/DBP).”

[3] = tested on: Cushing's syndrome patients; test: Cushing's syndrome patient study: hypertension response (24-hour ambulatory blood pressure)
Experimental: All patients gave informed consent before participating in any study-related procedures.
Response criteria for hyperglycemia were changes from baseline in glucose tolerance as measured by: ≥0.5% decrease in HbA1c, normalization or ≥50 mg/dL decrease in 2-hr OGTT glucose, or decrease in total daily insulin (≥25%) or sulfonylurea dose (≥50%). Response criteria for hypertension (HTN) was a ≥5 mm Hg decrease in mean systolic and/or diastolic blood pressure (SBP/DBP).
Response was based on ≥0.5% reduction of HbA1c associated with reduction or discontinuation of diabetes medications or clinically significant reduction (≥50 mg/dL decrease) or normalisation of the 2-hour glucose measurement from an oral glucose tolerance test (OGTT).

[4] = mITT, Group 1 (100-200 mg/day, 12 weeks)
[5] = mITT, Group 2 (250-400 mg/day, 16 weeks)
[6] = mPP, Group 1 (100-200 mg/day, 12 weeks)
[7] = mPP, Group 2 (250-400 mg/day, 16 weeks)
[8] = Safety population, Group 1 (100-200 mg/day, 12 weeks)
[9] = Safety population, Group 2 (250-400 mg/day, 16 weeks)

SMILES: Cn1cc(S(=O)(=O)N2CCC3=Cc4c(cnn4-c4ccc(F)cc4)C[C@]3(C(=O)c3cc(C(F)(F)F)ccn3)C2)cn1 [relacorilant, (R)-(1-(4-fluorophenyl)-6-((1-methyl-1H-pyrazol-4-yl)sulfonyl)-4,4a,5,6,7,8-hexahydro-1H-pyrazolo[3,4-g]isoquinolin-4a-yl) (4-(trifluoromethyl)pyridin-2-yl)methanone]
- Fructosamine, IGT mean change from Baseline to Last Observed [1, 4]: -6.85 µmol/L
- HOMA-IR, IGT mean change from Baseline to Last Observed [1, 4]: 0.05
- Fructosamine, IGT mean change from Baseline to Last Observed [1, 5]: -21.58 µmol/L
- HOMA-IR, IGT mean change from Baseline to Last Observed [1, 5]: −3.2
- Fructosamine, IGT mean change from Baseline to Last Observed ([1]; mITT, Overall): -13.92 µmol/L
- HOMA-IR, IGT mean change from Baseline to Last Observed ([1]; mITT, Overall): −1.58
- Fructosamine, IGT mean change from Baseline to Last Observed [1, 6]: -8.08 µmol/L
- HOMA-IR, IGT mean change from Baseline to Last Observed [1, 6]: 0.39
- Fructosamine, IGT mean change from Baseline to Last Observed [1, 7]: -18.92 µmol/L
- HOMA-IR, IGT mean change from Baseline to Last Observed [1, 7]: −3.28
- Fructosamine, IGT mean change from Baseline to Last Observed ([1]; mPP, Overall): -13.28 µmol/L
- HOMA-IR, IGT mean change from Baseline to Last Observed ([1]; mPP, Overall): −1.37
- AUCglucose mean change from Baseline to Last Observed [1, 4]: -3.11 mmol·h/L
- AUCinsulin mean change from Baseline to Last Observed [1, 4]: −33.28 hr * μU/mL
- AUCglucose mean change from Baseline to Last Observed [1, 5]: -0.8 mmol·h/L
- AUCinsulin mean change from Baseline to Last Observed [1, 5]: −32.26 hr * μU/mL
- AUCglucose mean change from Baseline to Last Observed ([1]; mITT, Overall): -1.96 mmol·h/L
- AUCinsulin mean change from Baseline to Last Observed ([1]; mITT, Overall): −32.77 hr * μU/mL
- AUCglucose mean change from Baseline to Last Observed [1, 6]: -3.63 mmol·h/L
- AUCinsulin mean change from Baseline to Last Observed [1, 6]: −38.79 hr * μU/mL
- AUCglucose mean change from Baseline to Last Observed [1, 7]: -1.24 mmol·h/L
- AUCinsulin mean change from Baseline to Last Observed [1, 7]: −37.39 hr * μU/mL
- AUCglucose mean change from Baseline to Last Observed ([1]; mPP, Overall): -2.48 mmol·h/L
- AUCinsulin mean change from Baseline to Last Observed ([1]; mPP, Overall): −38.12 hr * μU/mL
- AUCglucose in patients with hyperglycemia ([1]; Cushing's syndrome patients): statistically significant reduction
- hyperglycemia response rate ([1]; HD group (doses up to 400 mg), week 16): 50%
- hyperglycemia response rate ([1]; LD group (doses up to 200 mg), week 12): 15.4%
- patients with hyperglycaemia showing glycaemic improvement (responders/patients) ([1]; doses up to 400 mg): 6/12
- ECG Median Heart Rate mean change from Baseline to Last Observed [2, 8]: 8 beats/min
- PR Interval, Aggregate mean change from Baseline to Last Observed [2, 8]: 2.72 ms
- QRS Duration, Aggregate mean change from Baseline to Last Observed [2, 8]: -0.79 ms
- QT Interval, Aggregate mean change from Baseline to Last Observed [2, 8]: -15.85 ms
- QTcB Interval, Aggregate mean change from Baseline to Last Observed [2, 8]: 5.58 ms
- QTcF Interval, Aggregate mean change from Baseline to Last Observed [2, 8]: -1.98 ms
- RR Interval, Aggregate mean change from Baseline to Last Observed [2, 8]: -93.14 ms
- ECG Median Heart Rate mean change from Baseline to Last Observed [2, 9]: 5.23 beats/min
- PR Interval, Aggregate mean change from Baseline to Last Observed [2, 9]: -4.2 ms
- QRS Duration, Aggregate mean change from Baseline to Last Observed [2, 9]: -0.77 ms
- QT Interval, Aggregate mean change from Baseline to Last Observed [2, 9]: -11.04 ms
- QTcB Interval, Aggregate mean change from Baseline to Last Observed [2, 9]: 2.28 ms
- QTcF Interval, Aggregate mean change from Baseline to Last Observed [2, 9]: -2.54 ms
- RR Interval, Aggregate mean change from Baseline to Last Observed [2, 9]: -56.67 ms
- ECG Median Heart Rate mean change from Baseline to Last Observed ([2]; Safety population, Overall): 6.7 beats/min
- PR Interval, Aggregate mean change from Baseline to Last Observed ([2]; Safety population, Overall): -0.4 ms
- QRS Duration, Aggregate mean change from Baseline to Last Observed ([2]; Safety population, Overall): -0.78 ms
- QT Interval, Aggregate mean change from Baseline to Last Observed ([2]; Safety population, Overall): -13.6 ms
- QTcB Interval, Aggregate mean change from Baseline to Last Observed ([2]; Safety population, Overall): 4.03 ms
- QTcF Interval, Aggregate mean change from Baseline to Last Observed ([2]; Safety population, Overall): -2.24 ms
- RR Interval, Aggregate mean change from Baseline to Last Observed ([2]; Safety population, Overall): -76.04 ms
- ECG Median Heart Rate mean change from Baseline to Last Observed [2, 4]: 8 beats/min
- PR Interval, Aggregate mean change from Baseline to Last Observed [2, 4]: 2.72 ms
- QRS Duration, Aggregate mean change from Baseline to Last Observed [2, 4]: -0.79 ms
- QT Interval, Aggregate mean change from Baseline to Last Observed [2, 4]: -15.85 ms
- QTcB Interval, Aggregate mean change from Baseline to Last Observed [2, 4]: 5.58 ms
- QTcF Interval, Aggregate mean change from Baseline to Last Observed [2, 4]: -1.98 ms
- RR Interval, Aggregate mean change from Baseline to Last Observed [2, 4]: -93.14 ms
- ECG Median Heart Rate mean change from Baseline to Last Observed [2, 5]: 5.23 beats/min
- PR Interval, Aggregate mean change from Baseline to Last Observed [2, 5]: -4.2 ms
- QRS Duration, Aggregate mean change from Baseline to Last Observed [2, 5]: -0.77 ms
- QT Interval, Aggregate mean change from Baseline to Last Observed [2, 5]: -11.04 ms
- QTcB Interval, Aggregate mean change from Baseline to Last Observed [2, 5]: 2.28 ms
- QTcF Interval, Aggregate mean change from Baseline to Last Observed [2, 5]: -2.54 ms
- RR Interval, Aggregate mean change from Baseline to Last Observed [2, 5]: -56.67 ms
- ECG Median Heart Rate mean change from Baseline to Last Observed ([2]; mITT, Overall): 6.7 beats/min
- PR Interval, Aggregate mean change from Baseline to Last Observed ([2]; mITT, Overall): -0.4 ms
- QRS Duration, Aggregate mean change from Baseline to Last Observed ([2]; mITT, Overall): -0.78 ms
- QT Interval, Aggregate mean change from Baseline to Last Observed ([2]; mITT, Overall): -13.6 ms
- QTcB Interval, Aggregate mean change from Baseline to Last Observed ([2]; mITT, Overall): 4.03 ms
- QTcF Interval, Aggregate mean change from Baseline to Last Observed ([2]; mITT, Overall): -2.24 ms
- RR Interval, Aggregate mean change from Baseline to Last Observed ([2]; mITT, Overall): -76.04 ms
- hypertension response rate (≥5 mmHg reduction) ([3]; HD group (doses up to 400 mg daily), week 16): 63.6%
- hypertension response rate (≥5 mmHg reduction) ([3]; LD group (doses up to 200 mg daily), week 12): 41.7%
- nocturnal and daytime blood pressures ([3]; hypertension responders): clinically significant improvement
